Test results published in article PMC11012124, “Synthesis of Novel Triazine-Based Chalcones and 8,9-dihydro-7H-pyrimido[4,5-b][1,4]diazepines as Potential Leads in the Search of Anticancer, Antibacterial and Antifungal Agents” (International Journal of Molecular Sciences, 2024).

What was measured:
60 cancer cell lines = assay: NCI-60 one-dose screen (10 μM); assay type: cell-based; conditions: Homo sapiens; one dose of 10 μM, mean over 60 cancer cell lines; read-out: Mean Growth Percent (MGP)
From the text: Additionally, the mean of the growth percentages (MGP) of each compound against all the 60 cancer cell lines is also reported, which is used as one of the selection criteria to continue with tests at five concentration doses.

[1] = Hemolytic activity, spectrophotometric; assay type: cell-based, human; conditions: human, human red blood cells (huRBC), 5% hematocrit, 200 μg/mL, 37 °C
MOLT-4 = assay: cells; conditions: Homo sapiens, MOLT-4, 48 h; for CC50: read-out: LC50
RPMI-8226 = assay: cells; conditions: Homo sapiens, RPMI-8226, 48 h; for CC50: read-out: LC50
A549/ATCC = assay: cells; conditions: Homo sapiens, A549, 48 h; for CC50: read-out: LC50
EKVX = assay: cells; conditions: Homo sapiens, 48 h; for CC50: read-out: LC50
HOP-62 = assay: cells; conditions: Homo sapiens, HOP-62, 48 h; for CC50: read-out: LC50
NCI-H322M = assay: cells; conditions: Homo sapiens, 48 h; for CC50: read-out: LC50
NCI-H522 = assay: cells; conditions: Homo sapiens, NCI-H522, 48 h; for CC50: read-out: LC50
COLO 205 = assay: cells; conditions: Homo sapiens, COLO 205, 48 h; for CC50: read-out: LC50
HCC-2998 = assay: cells; conditions: Homo sapiens, HCC 2998, 48 h; for CC50: read-out: LC50
HCT-116 = assay: cells; conditions: Homo sapiens, HCT-116, 48 h; for CC50: read-out: LC50
HCT-15 = assay: cells; conditions: Homo sapiens, HCT-15, 48 h; for CC50: read-out: LC50
HT29 = assay: cells; conditions: Homo sapiens, HT-29, 48 h; for CC50: read-out: LC50
KM12 = assay: cells; conditions: Homo sapiens, KM12, 48 h; for CC50: read-out: LC50
SW-620 = assay: cells; conditions: Homo sapiens, SW-620, 48 h; for CC50: read-out: LC50
SF-539 = assay: cells; conditions: Homo sapiens, SF-539, 48 h; for CC50: read-out: LC50, SF-539, 48 h
SNB-19 = assay: cells; conditions: Homo sapiens, SNB-19, 48 h; for CC50: read-out: LC50
SNB-75 = assay: cells; conditions: Homo sapiens, SNB-75, 48 h; for CC50: read-out: LC50
U251 = assay: cells; conditions: Homo sapiens, U-251, 48 h; for GI50: U251, 48 h; for CC50: read-out: LC50
MALME-3M = assay: cells; conditions: Homo sapiens, 48 h
M14 = assay: cells; conditions: Homo sapiens, M14, 48 h; for CC50: read-out: LC50
SK-MEL-28 = assay: cells; conditions: Homo sapiens, SK-MEL-28, 48 h; for CC50: read-out: LC50
UACC-62 = assay: cells; conditions: Homo sapiens, UACC-62, 48 h; for CC50: read-out: LC50
OVCAR-8 = assay: cells; conditions: Homo sapiens, OVCAR-8, 48 h; for CC50: read-out: LC50
SK-OV-3 = assay: cells; conditions: Homo sapiens, SK-OV-3, 48 h; for CC50: read-out: LC50
ACHN = assay: cells; conditions: Homo sapiens, 48 h; for CC50: read-out: LC50
CAKI-1 = assay: cells; conditions: Homo sapiens, CAKI-1, 48 h; for CC50: read-out: LC50
RXF 393 = assay: cells; conditions: Homo sapiens, RXF 393, 48 h
UO-31 = assay: cells; conditions: Homo sapiens, UO-31, 48 h; for CC50: read-out: LC50
PC-3 = assay: cells; conditions: Homo sapiens, PC-3, 48 h
DU-145 = assay: cells; conditions: Homo sapiens, DU-145, 48 h; for CC50: read-out: LC50
MDA-MB-231/ATCC = assay: cells; conditions: Homo sapiens, MDA-MB-231, 48 h; for CC50: read-out: LC50
HS 578T = assay: cells; conditions: Homo sapiens, 48 h; for CC50: read-out: LC50
BT-549 = assay: cells; conditions: Homo sapiens, BT-549, 48 h; for CC50: read-out: LC50
T-47D = assay: cells; conditions: Homo sapiens, T47D, 48 h; for CC50: read-out: LC50
MDA-MB-468 = assay: cells; conditions: Homo sapiens, MDA-MB-468, 48 h; for CC50: read-out: LC50

## Nc1nc(N)c2c(n1)NC(c1ccccc1)CC(c1ccc(Nc3nc(NCCO)nc(Nc4ccc(Cl)cc4)n3)cc1)=N2 (stereo not drawn) [33a]
60 cancer cell lines
  activity at 10 µM: 25.3%
[1]
  hemolysis at 24 h, 200 µg/mL: 8%
MOLT-4
  GI50: < 0.01 µM
  CC50: > 100 µM
RPMI-8226
  GI50: 1.38 µM
  CC50: > 100 µM
A549/ATCC
  GI50: 2.84 µM
  CC50: > 100 µM
EKVX
  GI50: 1.64 µM
  CC50: 6.12 µM
HOP-62
  GI50: 1.74 µM
  CC50: 6.07 µM
NCI-H322M
  GI50: 1.63 µM
  CC50: 5.67 µM
NCI-H522
  GI50: 1.79 µM
  CC50: 6.77 µM
COLO 205
  GI50: 1.79 µM
  CC50: 6.09 µM
HCC-2998
  GI50: 1.68 µM
  CC50: 5.72 µM
HCT-116
  GI50: 1.51 µM
  CC50: 5.33 µM
HCT-15
  GI50: 1.38 µM
  CC50: 5.87 µM
HT29
  GI50: 1.77 µM
  CC50: 6.28 µM
KM12
  GI50: 1.9 µM
  CC50: 6.61 µM
SW-620
  GI50: 1.87 µM
  CC50: 6.48 µM
SF-539
  GI50: 1.6 µM
  CC50: 5.85 µM
SNB-19
  GI50: 1.58 µM
  CC50: 5.64 µM
SNB-75
  GI50: 1.56 µM
  CC50: 6.29 µM
U251
  GI50: 1.53 µM
  CC50: 5.84 µM
MALME-3M
  GI50: 1.76 µM
M14
  GI50: 1.84 µM
  CC50: 6.1 µM
SK-MEL-28
  GI50: 1.73 µM
  CC50: 5.64 µM
UACC-62
  GI50: 1.84 µM
  CC50: 6 µM
OVCAR-8
  GI50: 1.46 µM
  CC50: 6.59 µM
SK-OV-3
  GI50: 17.7 µM
  CC50: 57.9 µM
ACHN
  GI50: 1.95 µM
  CC50: 9.76 µM
CAKI-1
  GI50: 2.3 µM
  CC50: 24.8 µM
RXF 393
  GI50: 1.63 µM
UO-31
  GI50: 1.87 µM
  CC50: 9.83 µM
PC-3
  GI50: 1.59 µM
DU-145
  GI50: 1.8 µM
  CC50: 6.34 µM
MDA-MB-231/ATCC
  GI50: 1.75 µM
  CC50: 6.94 µM
HS 578T
  GI50: 1.98 µM
  CC50: > 100 µM
BT-549
  GI50: 1.77 µM
  CC50: 5.81 µM
T-47D
  GI50: 1.52 µM
  CC50: 7.29 µM
MDA-MB-468
  GI50: 1.51 µM
  CC50: 5.93 µM

## COc1cc(/C=C/C(=O)c2cc(OC)c(OC)c(OC)c2)ccc1Oc1nc(NCCO)nc(N2CCOCC2)n1 [20d]
60 cancer cell lines
  activity at 10 µM: 0.79%
[1]
  hemolysis at 24 h, 200 µg/mL: 1.2%
MOLT-4
  GI50: 1.98 µM
  CC50: > 100 µM
RPMI-8226
  GI50: 1.63 µM
  CC50: > 100 µM
A549/ATCC
  GI50: 2.78 µM
  CC50: 42.2 µM
EKVX
  GI50: 2.81 µM
  CC50: 36.6 µM
HOP-62
  GI50: 2.35 µM
  CC50: 22.4 µM
NCI-H322M
  GI50: 2.91 µM
  CC50: 29.3 µM
NCI-H522
  GI50: 1.56 µM
  CC50: 6.43 µM
COLO 205
  GI50: 2.1 µM
  CC50: 9.18 µM
HCC-2998
  GI50: 2.23 µM
  CC50: 7.97 µM
HCT-116
  GI50: 1.53 µM
  CC50: 6.78 µM
HCT-15
  GI50: 1.6 µM
  CC50: 10.2 µM
HT29
  GI50: 2.83 µM
  CC50: 32.9 µM
KM12
  GI50: 2.99 µM
  CC50: > 100 µM
SW-620
  GI50: 2.24 µM
  CC50: 26.4 µM
SF-539
  GI50: 1.88 µM
  CC50: 13 µM
SNB-19
  GI50: 2.31 µM
  CC50: 29.9 µM
SNB-75
  GI50: 1.79 µM
  CC50: 24.2 µM
U251
  GI50: 1.62 µM
  CC50: 6.02 µM
MALME-3M
  GI50: 2.67 µM
MALME-3M; read-out: LC50
  CC50: 24.3 µM
M14
  GI50: 2.38 µM
  CC50: 37.9 µM
SK-MEL-28
  GI50: 1.92 µM
  CC50: 7.53 µM
UACC-62
  GI50: 1.69 µM
  CC50: 6.03 µM
OVCAR-8
  GI50: 2.56 µM
  CC50: 34.7 µM
SK-OV-3
  GI50: 2.44 µM
  CC50: 22 µM
ACHN
  GI50: 1.64 µM
  CC50: 7.9 µM
CAKI-1
  GI50: 2.43 µM
  CC50: 30.4 µM
RXF 393
  GI50: 1.75 µM
RXF 393; read-out: LC50
  CC50: 6.94 µM
UO-31
  GI50: 1.66 µM
  CC50: 6.5 µM
PC-3
  GI50: 3.11 µM
PC-3; read-out: LC50
  CC50: 43.2 µM
DU-145
  GI50: 2.99 µM
  CC50: 35.3 µM
MDA-MB-231/ATCC
  GI50: 2.86 µM
  CC50: 35.4 µM
HS 578T
  GI50: 3.62 µM
  CC50: > 100 µM
BT-549
  GI50: 1.6 µM
  CC50: 6.88 µM
T-47D
  GI50: 3.12 µM
  CC50: 39.9 µM
MDA-MB-468
  GI50: 1.71 µM
  CC50: 14.3 µM
